Data set [1] is described as follows: logP determination by reversed-phase HPLC (EEC directive 79/831 Annex V.A8), pH 2.3. In kind it is physicochemical. To be noted: reversed-phase HPLC column (C18), HPLC C18, 43° C., Preparation Examples. On the procedure: The logP values given in the tables and Preparation Examples above are determined in accordance with EEC directive 79/831 Annex V.A8 by HPLC (High Performance Liquid Chromatography) using a reversed-phase column (C 18). Temperature: 43° C.
The determination is carried out in the acidic range at pH 2.3 using the mobile phases 0.1% aqueous phosphoric acid and acetonitrile; linear gradient from 10% acetonitrile to 90% acetonitrile.
Calibration is carried out using unbranched alkan-2-ones (of 3 to 16 carbon atoms) with known logP values (determination of the logP values by retention times using linear interpolation between two successive alkanones).

Data set [2] relates to caterpillars of the diamondback moth (Plutella xylostella). The data set is described as follows: Plutella test, cabbage leaf dip (Example D). The conditions noted are these: 500 ppm active compound; after 7 days; cabbage leaves dipped. Format: in vivo. How it is done:
(§1) Solvent: 7 parts by weight of dimethylformamide
(§2) Emulsifier: 2 parts by weight of alkylaryl polyglycol ether
(§3) To produce a suitable preparation of active compound, 1 part by weight of active compound is mixed with the stated amounts of solvent and emulsifier, and the concentrate is diluted with emulsifier-containing water to the desired concentration.
Cabbage leaves (Brassica oleracea) are treated by being dipped into the preparation of active compound of the desired concentration and are populated with caterpillars of the diamondback moth (Plutella xylostella) while the leaves are still moist.
(§4) After the desired period of time, the kill in % is determined. 100% means that all caterpillars have been killed; 0% means that none of the caterpillars have been killed.

Data set [3] deals with caterpillars of the army worm (Spodoptera frugiperda). The data set is described as follows: Spodoptera frugiperda test (Example F). In kind it is in vivo. To be noted: 500 ppm active compound; after 7 days; cabbage leaves dipped. On the procedure: Spodoptera frugiperda Test
as §1, §2, §3
Cabbage leaves (Brassica oleracea) are treated by being dipped into the preparation of active compound of the desired concentration and are populated with caterpillars of the army worm (Spodoptera frugiperda) while the leaves are still moist.
as §4

For data set [4], the system named is Heliothis virescens caterpillars. The data set can be described thus: Heliothis virescens test (Example B). In kind it is in vivo. To be noted: 500 ppm active compound; after 7 days; soya bean shoots dipped. On the procedure: as §1, §2, §3
Soya bean shoots (Glycine max) are treated by being dipped into the preparation of active compound of the desired concentration and are populated with Heliothis virescens caterpillars while the leaves are still moist.
as §4

Data set [5] deals with caterpillars of the army worm (Spodoptera exigua). The data set can be described thus: Spodoptera exigua test (Example E). Format: in vivo. To be noted: 500 ppm active compound; after 7 days; cabbage leaves dipped. How it is done: as §1, §2, §3
Cabbage leaves (Brassica oleracea) are treated by being dipped into the preparation of active compound of the desired concentration and are populated with caterpillars of the army worm (Spodoptera exigua) while the leaves are still moist.
as §4

Data set [6] deals with larvae of the mustard beetle (Phaedon cochleariae). The data set is described as follows: Phaedon larvae test (Example C). In kind it is in vivo. To be noted: 500 ppm active compound; after 7 days; cabbage leaves dipped. How it is done:
Phaedon larvae Test Solvent: 7 parts by weight of dimethylformamide Emulsifier: 2 parts by weight of alkylaryl polyglycol ether To produce a suitable preparation of active compound, 1 part by weight of active compound is mixed with the stated amounts of solvent and emulsifier, and the concentrate is diluted with emulsifier-containing water to the desired concentration. Cabbage leaves (Brassica oleracea) are treated by being dipped into the preparation of active compound of the desired concentration and are populated with larvae of the mustard beetle (Phaedon cochleariae) while the leaves are still moist.

Data set [7] relates to caterpillars of the cotton bud worm (Heliothis armigera). The data set can be described thus: Heliothis armigera test (Example A). In kind it is in vivo. The conditions noted are these: 500 ppm active compound; after 7 days; soya bean shoots dipped. On the procedure:
as §1, §2, §3
Soya bean shoots (Glycine max) are treated by being dipped into the preparation of active compound of the desired concentration and are populated with caterpillars of the cotton bud worm (Heliothis armigera) while the leaves are still moist.
as §4

Structures are written as SMILES.

A word on the chromatographic logP: it is a lipophilicity value derived from retention on a column. Read a low chromatographic logP as a more hydrophilic compound. Regarding `Cn1nnnc1CC(=O)c1ccc(Cl)cc1` [2-(1-methyltetrazol-5-yl)-4′-chloroacetophenone], in data set [1], the chromatographic logP turned out to be 1.78.
Still for that read-out and setting: the same measure for `Cn1nnc(CC(=O)c2ccc(Cl)cc2)n1` [2-(2-methyltetrazol-5-yl)-4′-chloroacetophenone]: 2.03; for `Cc1nnnn1CC(=O)c1ccc(Cl)cc1` [2-(5-methyltetrazol-1-yl)-4′-chloroacetophenone]: 1.81.
Still for that read-out and setting: the same measure for `Cc1nnn(CC(=O)c2ccc(Cl)cc2)n1` [2-(5-methyltetrazol-2-yl)-4′-chloroacetophenone]: 2.14; for `O=C(Cc1nn[nH]n1)c1ccc(Cl)cc1` [2-tetrazol-5-yl-4′-chloroacetophenone]: 1.44.
Same read-out and setting: to `Cc1nnc(C2CNN=C2c2ccc(Cl)cc2)s1` (centres unmarked) [3-(4-chlorophenyl)-4-(2-methyl-1,3,4-thiadiazol-5-yl)-4,5-dihydro-1H-pyrazole] belongs 1.77; to `Cn1nnc(C2CNN=C2c2ccc(Cl)cc2)n1` (centres unmarked) [3-(4-chlorophenyl)-4-(2-methyltetrazol-5-yl)-4,5-dihydro-1H-pyrazole], 1.67.
In data set [1], `Cc1nnn(C2CNN=C2c2ccc(Cl)cc2)n1` (centres unmarked) [3-(4-chlorophenyl)-4-(5-methyltetrazol-2-yl)-4,5-dihydro-1H-pyrazole] gave a chromatographic logP of 2.11.
In data set [1], `Cc1nnn(C2CN(C(=O)Nc3ccc(OC(F)(F)F)cc3)N=C2c2ccc(Cl)cc2)n1` (centres unmarked) [Example 1, N-(4-trifluoromethoxy)-3-(4-chlorophenyl)-4-(5-methyltetrazol-2-yl)-4,5-dihydro-1-pyrazolecarboxanilide] returned a chromatographic logP of 4. For the same compound, the kill in data set [2], in data set [3], in data set [4], in data set [5] and in data set [6] was 100% each time.
Consider `Cc1nnn(C2CN(C(=O)N(CC#N)c3ccc(OC(F)(F)F)cc3)N=C2c2ccc(Cl)cc2)n1` (centres unmarked) [Example 2, N-cyanomethyl-N-trifluoromethoxy-3-(4-chlorophenyl)-4-(5-methyltetrazol-2-yl)-4,5-dihydro-1-pyrazolecarboxanilide], for which the kill in data set [7], in data set [2], in data set [3], in data set [5] and in data set [6] was 100% in each case. The same compound had a chromatographic logP in data set [1] of 3.68.
For the compound `Cc1nnc(C2CN(C(=O)Nc3ccc(OC(F)(F)F)cc3)N=C2c2ccc(Cl)cc2)s1` (centres unmarked) [Example 4, N-(4-trifluoromethoxy)-3-(4-chlorophenyl)-4-(5-methyl-1,3,4-thiadiazol-2-yl)-4,5-dihydro-1-pyrazolecarboxanilide], the kill in data set [7], in data set [2], in data set [3], in data set [5] and in data set [6] was 100% in each case. Moreover, the chromatographic logP in data set [1] was 3.77.

These data come from patent publication US7345009B2, “Substituted 4-hetaryl-pyrazolines as pest control agents” (Bayer CropScience AG, priority 2002, dated 2008).
